Tested on: T1, Bgl3HB
T1 construct: pPICZalphaA (alpha-factor secretion) in Komagataella phaffii X33; by primers starts MVNNAA and ends QIQDATP plus C-terminal His6; GH3, GH3-C and Fn3-like domains
Assay: pNP release, OD400, Lineweaver-Burk
Assay type: biochemical, Trichoderma harzianum
Conditions: pH 4.0, 50 °C, 10 min
Description: pNP release, OD400, Lineweaver-Burk on Bgl3HB

- Km: 1220 µM
Compound: O=[N+]([O-])c1ccc(O[C@@H]2O[C@H](CO)[C@@H](O)[C@H](O)[C@H]2O)cc1 [pNPG]
